We go through 6 compounds from US11130793B2, “GLP-1/GLP-2 dual agonists” (Zealand Pharma A/S, priority 2016, dated 2021).

pEC50: −log10 of the molar value. Square brackets hold non-standard residues; d marks the D form. Peptide text beside a SMILES is read from it. Aib = CC(C)(N)C(=O)O

The target of one assay is T1, human GLP-1 receptor (Homo sapiens, UniProt P43220).
T1 construct: expressed in transfected cells
In words: GLP-1 receptor potency assay (cAMP AlphaScreen, HEK293 cells stably expressing GLP-1R). In kind it is cell-based. The conditions noted are these: cAMP response, HEK293 cells expressing human GLP-1R; read-out: EC50 GLP-1. In outline:
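cAMP accumulation was quantified by AlphaScreen in G418-selected HEK293 cells stably transfected with human GLP-1R cDNA. Concentration-response data were normalized between vehicle and positive control. EC50 and maximal response came from 4PL curve fitting.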

For a further assay, the target named is T2, human GLP-2 receptor (Homo sapiens, UniProt O95838, D470N).
T2 sequence (O95838 1-553 D470N): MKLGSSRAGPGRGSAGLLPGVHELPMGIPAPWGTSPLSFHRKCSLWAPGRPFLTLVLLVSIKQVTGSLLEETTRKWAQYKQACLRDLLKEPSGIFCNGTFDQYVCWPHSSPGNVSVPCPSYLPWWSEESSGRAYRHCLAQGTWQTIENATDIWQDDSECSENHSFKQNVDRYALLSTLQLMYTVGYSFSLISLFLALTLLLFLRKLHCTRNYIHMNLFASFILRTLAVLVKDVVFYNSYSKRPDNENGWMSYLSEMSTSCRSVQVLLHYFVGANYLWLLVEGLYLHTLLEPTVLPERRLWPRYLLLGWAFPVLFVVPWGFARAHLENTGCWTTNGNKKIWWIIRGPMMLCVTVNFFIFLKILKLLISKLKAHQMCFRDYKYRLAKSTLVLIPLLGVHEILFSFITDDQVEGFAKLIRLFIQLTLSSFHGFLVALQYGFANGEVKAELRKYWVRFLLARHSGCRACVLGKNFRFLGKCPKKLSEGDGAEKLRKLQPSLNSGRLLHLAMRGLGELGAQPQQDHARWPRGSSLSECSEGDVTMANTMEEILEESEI
In words: GLP-2 receptor potency assay (cAMP AlphaScreen, HEK293 cells stably expressing GLP-2R). The format is cell-based. As to conditions: cAMP response, HEK293 cells expressing human GLP-2R. In outline: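 EC50 and maximal response were fitted with a 4PL model after normalization to positive control and vehicle. cAMP accumulation was quantified by AlphaScreen in a stable HEK293 clone transfected with human GLP-2 receptor.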
On the technique in general: In Alpha technology, singlet oxygen from a donor bead excites a nearby acceptor bead.

T1 sequence (P43220 24-463): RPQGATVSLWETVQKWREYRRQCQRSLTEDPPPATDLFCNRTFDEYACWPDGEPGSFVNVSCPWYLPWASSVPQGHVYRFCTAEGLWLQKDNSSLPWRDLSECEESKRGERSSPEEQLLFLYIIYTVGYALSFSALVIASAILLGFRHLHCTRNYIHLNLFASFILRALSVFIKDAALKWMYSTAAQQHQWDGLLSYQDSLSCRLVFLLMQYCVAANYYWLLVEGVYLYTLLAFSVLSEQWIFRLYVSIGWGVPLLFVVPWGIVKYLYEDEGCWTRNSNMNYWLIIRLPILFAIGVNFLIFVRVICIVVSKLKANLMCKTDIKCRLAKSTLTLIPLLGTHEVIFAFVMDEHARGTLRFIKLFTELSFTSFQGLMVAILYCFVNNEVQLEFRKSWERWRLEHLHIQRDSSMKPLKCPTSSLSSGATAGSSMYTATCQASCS

A word on the pEC50: it is −log10 of the EC50, conventionally taken in molar units. `CC[C@H](C)[C@H](NC(=O)[C@H](CC(C)C)NC(=O)[C@H](Cc1c[nH]c2ccccc12)NC(=O)[C@H](C)NC(=O)[C@@H](NC(=O)[C@H](Cc1ccccc1)NC(=O)[C@H](CC(=O)O)NC(=O)[C@H](CCCNC(=N)N)NC(=O)[C@H](C)NC(=O)[C@H](C)NC(=O)[C@H](CCCCN)NC(=O)CNC(=O)[C@H](CC(=O)O)NC(=O)[C@H](CC(C)C)NC(=O)[C@@H](NC(=O)[C@@H](NC(=O)[C@H](C)NC(=O)[C@H](CC(C)C)NC(=O)[C@H](CCC(=O)O)NC(=O)[C@H](CO)NC(=O)[C@H](CO)NC(=O)[C@H](Cc1ccccc1)NC(=O)[C@@H](NC(=O)CNC(=O)[C@H](CCC(=O)O)NC(=O)C(C)(C)NC(=O)[C@@H](N)Cc1c[nH]cn1)[C@@H](C)O)[C@@H](C)O)[C@@H](C)CC)[C@@H](C)CC)C(=O)N[C@@H](C)C(=O)N[C@@H](Cc1c[nH]cn1)C(=O)N[C@@H](CCCCN)C(=O)N[C@H](C(=O)N[C@H](C(=O)N[C@@H](CC(=O)O)C(=O)O)[C@@H](C)O)[C@@H](C)CC` [Compound 32] (H-H[Aib]EGTFSSELATILDGKAARDFIAWLIAHKITD-OH): the pEC50 is 10.42 at human GLP-1 receptor and 9.82 on human GLP-2 receptor.

For `CC[C@H](C)[C@H](NC(=O)[C@H](CC(C)C)NC(=O)[C@H](Cc1c[nH]c2ccccc12)NC(=O)[C@H](CC(N)=O)NC(=O)[C@@H](NC(=O)[C@H](Cc1ccccc1)NC(=O)[C@H](CC(=O)O)NC(=O)[C@H](CCCNC(=N)N)NC(=O)[C@H](C)NC(=O)[C@H](C)NC(=O)[C@H](CCC(N)=O)NC(=O)[C@H](CCC(=O)O)NC(=O)[C@H](CC(=O)O)NC(=O)[C@H](CC(C)C)NC(=O)[C@@H](NC(=O)[C@@H](NC(=O)[C@H](C)NC(=O)[C@H](CC(C)C)NC(=O)[C@H](CCC(=O)O)NC(=O)[C@H](CO)NC(=O)[C@@H](NC(=O)[C@H](Cc1ccccc1)NC(=O)[C@@H](NC(=O)CNC(=O)[C@H](CCC(=O)O)NC(=O)C(C)(C)NC(=O)[C@@H](N)Cc1c[nH]cn1)[C@@H](C)O)[C@@H](C)O)[C@@H](C)O)[C@@H](C)CC)[C@@H](C)CC)C(=O)N[C@@H](C)C(=O)N[C@@H](Cc1c[nH]cn1)C(=O)N[C@@H](CCCCN)C(=O)N[C@H](C(=O)N[C@H](C(=O)N[C@@H](CC(=O)O)C(=O)O)[C@@H](C)O)[C@@H](C)CC` [Compound 33] (H-H[Aib]EGTFTSELATILDEQAARDFINWLIAHKITD-OH), the figures for the pEC50 on human GLP-1 receptor and at human GLP-2 receptor were 11.40 and 10.39, respectively.

For `CC[C@H](C)[C@H](NC(=O)[C@H](Cc1ccccc1)NC(=O)[C@H](CC(=O)O)NC(=O)[C@H](CCCNC(=N)N)NC(=O)[C@H](C)NC(=O)[C@H](C)NC(=O)[C@H](CCC(N)=O)NC(=O)[C@H](CCC(=O)O)NC(=O)[C@H](CC(=O)O)NC(=O)[C@H](CC(C)C)NC(=O)[C@@H](NC(=O)[C@@H](NC(=O)[C@H](C)NC(=O)[C@H](CC(C)C)NC(=O)[C@H](CCC(=O)O)NC(=O)[C@H](CO)NC(=O)[C@@H](NC(=O)[C@H](Cc1ccccc1)NC(=O)[C@@H](NC(=O)CNC(=O)[C@H](CCC(=O)O)NC(=O)C(C)(C)NC(=O)[C@@H](N)Cc1c[nH]cn1)[C@@H](C)O)[C@@H](C)O)[C@@H](C)O)[C@@H](C)CC)C(=O)N[C@@H](CC(N)=O)C(=O)N[C@@H](Cc1c[nH]c2ccccc12)C(=O)N[C@@H](CC(C)C)C(=O)N[C@@H](CCCCN)C(=O)N[C@@H](CO)C(=O)N[C@@H](Cc1ccc(O)cc1)C(=O)N[C@@H](CCCCN)C(=O)N[C@H](C(=O)N[C@H](C(=O)N[C@@H](CC(=O)O)C(=O)O)[C@@H](C)O)[C@@H](C)CC` [Compound 36] (H-H[Aib]EGTFTSELATILDEQAARDFINWLKSYKITD-OH), the negative-log EC50 (pEC50) is 11.15 at human GLP-1 receptor and 9.96 on human GLP-2 receptor.

On to `CC[C@H](C)[C@H](NC(=O)[C@H](Cc1ccccc1)NC(=O)[C@H](CC(=O)O)NC(=O)[C@H](CCCNC(=N)N)NC(=O)[C@H](C)NC(=O)[C@H](C)NC(=O)[C@H](CCC(N)=O)NC(=O)[C@H](CCC(=O)O)NC(=O)[C@H](CC(=O)O)NC(=O)[C@H](CC(C)C)NC(=O)[C@@H](NC(=O)[C@@H](NC(=O)[C@H](C)NC(=O)[C@H](CC(C)C)NC(=O)[C@H](CCC(=O)O)NC(=O)[C@H](CO)NC(=O)[C@@H](NC(=O)[C@H](Cc1ccccc1)NC(=O)[C@@H](NC(=O)CNC(=O)[C@H](CCC(=O)O)NC(=O)C(C)(C)NC(=O)[C@@H](N)Cc1c[nH]cn1)[C@@H](C)O)[C@@H](C)O)[C@@H](C)O)[C@@H](C)CC)C(=O)N[C@@H](CC(N)=O)C(=O)N[C@@H](Cc1c[nH]c2ccccc12)C(=O)N[C@@H](CC(C)C)C(=O)N[C@@H](CCCCN)C(=O)N[C@@H](CCC(=O)O)C(=O)N[C@@H](CCC(N)=O)C(=O)N[C@@H](CCCCN)C(=O)N[C@H](C(=O)N[C@H](C(=O)N[C@@H](CC(=O)O)C(=O)O)[C@@H](C)O)[C@@H](C)CC` [Compound 37] (H-H[Aib]EGTFTSELATILDEQAARDFINWLKEQKITD-OH), for which the pEC50 at human GLP-1 receptor was 11.15; on human GLP-2 receptor, 9.80.

Turning to `CC[C@H](C)[C@H](NC(=O)[C@H](Cc1ccccc1)NC(=O)[C@H](CC(=O)O)NC(=O)[C@H](CCCNC(=N)N)NC(=O)[C@H](C)NC(=O)[C@H](C)NC(=O)[C@H](CCC(N)=O)NC(=O)[C@H](CCC(=O)O)NC(=O)[C@H](CC(=O)O)NC(=O)[C@H](CC(C)C)NC(=O)[C@@H](NC(=O)[C@@H](NC(=O)[C@H](C)NC(=O)[C@H](CC(C)C)NC(=O)[C@H](CCC(=O)O)NC(=O)[C@H](CO)NC(=O)[C@H](CO)NC(=O)[C@H](Cc1ccccc1)NC(=O)[C@H](CO)NC(=O)CNC(=O)[C@H](CCC(=O)O)NC(=O)C(C)(C)NC(=O)[C@@H](N)Cc1c[nH]cn1)[C@@H](C)O)[C@@H](C)CC)C(=O)N[C@@H](C)C(=O)N[C@@H](Cc1c[nH]c2ccccc12)C(=O)N[C@@H](CC(C)C)C(=O)N[C@H](C(=O)N[C@@H](CCC(N)=O)C(=O)N[C@@H](Cc1c[nH]cn1)C(=O)N[C@@H](CCCCN)C(=O)N[C@H](C(=O)N[C@H](C(=O)N[C@@H](CC(=O)O)C(=O)O)[C@@H](C)O)[C@@H](C)CC)[C@@H](C)CC` [Compound 41] (H-H[Aib]EGSFSSELATILDEQAARDFIAWLIQHKITD-OH), the pEC50 at human GLP-1 receptor was 10.11; at human GLP-2 receptor, 10.59.

For the compound “H-HGEGSFSSELATILDEQAARDFIAWLIQHKITD-NH2 [Compound 40]”, the pEC50 is 8.85 on human GLP-1 receptor and 10.30 at human GLP-2 receptor.
